Measurements taken from patent US20260250318A1, “COMPOSITIONS AND METHODS FOR CROSSING THE BLOOD BRAIN BARRIER” (VOYAGER THERAPEUTICS, INC., priority 2022, published 2026).

What was measured:
brain = assay: Matured TTM-001 and TTM-002 variants, NGS enrichment in mouse brain; format: in vivo, mice; details: relative to AAV9 control
[1] = test system: brains, heart, liver, muscle, and DRG of the NHPs; assay: Maturation of TTM-001 and TTM-002 capsids, NGS enrichment in NHP tissues; format: in vivo; details: relative to AAV9 control
Method in brief: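 Variants carry mutations within and flanking the loop IV peptide insert: positions 450–466 were triplet-randomized, while positions 449–466 received low-frequency point mutations. The combined pool went into two NHPs, and each peptide was scored by NGS enrichment ratio against AAV9.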

[2] = NGS fold-enrichment, brain of mice
[3] = NGS fold-enrichment, mouse brain
[4] = NGS fold-enrichment of RNA, NHP brain
[5] = NGS fold-enrichment, DRG of NHPs
[6] = NGS fold-enrichment, NHP liver DNA
[7] = NGS fold-enrichment, NHP liver RNA
[8] = NGS fold-enrichment, NHP muscle
[9] = NGS fold-enrichment, RNA, brain of NHPs
[10] = NGS fold-enrichment, heart of NHPs
[11] = NGS fold-enrichment, liver DNA of NHPs
[12] = NGS fold-enrichment, liver RNA of NHPs
[13] = NGS fold-enrichment, muscle of NHPs

| Sequence | Fold Enrichment relative to AAV9, Brain (Mouse) (brain; [2]) | Fold Enrichment relative to AAV9, Brain (Mouse) (brain; [3]) | Fold Enrichment relative to AAV9, Brain (NHP) [1, 4] | Fold Enrichment relative to AAV9, DRG (NHP) [1, 5] | Fold Enrichment relative to AAV9, DRG (NHP) ([1]; NGS fold-enrichment, NHP DRG) | Fold Enrichment relative to AAV9, Heart (NHP) ([1]; NGS fold-enrichment, NHP heart) | Fold Enrichment relative to AAV9, Liver DNA (NHP) [1, 6] | Fold Enrichment relative to AAV9, Liver RNA (NHP) [1, 7] | Fold Enrichment relative to AAV9, Muscle (NHP) [1, 8] | Fold Enrichment relative to AAV9, Brain (NHP) [1, 9] | Fold Enrichment relative to AAV9, Heart (NHP) [1, 10] | Fold Enrichment relative to AAV9, Liver DNA (NHP) [1, 11] | Fold Enrichment relative to AAV9, Liver RNA (NHP) [1, 12] | Fold Enrichment relative to AAV9, Muscle (NHP) [1, 13] | other results |
| --- | --- | --- | --- | --- | --- | --- | --- | --- | --- | --- | --- | --- | --- | --- | --- |
| KTFHGSGSPHSKTQNQQT | 51.119 fold | 51.119 fold | 94.714 fold | 0.000 fold | 0.000 fold | 0.210 fold | 0.000 fold | 0.000 fold | 0.120 fold | 94.714 fold | 0.210 fold | 0.000 fold | 0.000 fold | 0.120 fold | – |
| KTFKGSGSPHSKAPNQQT | 71.144 fold | 71.144 fold | 80.890 fold | 0.000 fold | 0.000 fold | 0.000 fold | 0.017 fold | 0.000 fold | 0.000 fold | 80.890 fold | 0.000 fold | 0.017 fold | 0.000 fold | 0.000 fold | – |
| KTFNASGSPHSKAPNQQT | 66.275 fold | – | – | 0.208 fold | – | – | – | – | – | 65.392 fold | 0.000 fold | 0.156 fold | 0.215 fold | 0.000 fold | – |
| KTFNGGGSPHSKAQYQQT | – | – | – | – | – | – | – | – | – | – | – | – | – | – | Fold Enrichment relative to AAV9, Brain (Mouse) (brain; mouse brain): 72.618 fold; Fold Enrichment relative to AAV9, Brain (NHP) ([1]; NGS fold-enrichment of matured AAV capsid variants, NHP brain, RNA): 58.609 fold; Fold Enrichment relative to AAV9, DRG (NHP) ([1]; NHP DRG): 0.000 fold; Fold Enrichment relative to AAV9, Heart (NHP) ([1]; NHP heart): 0.000 fold; Fold Enrichment relative to AAV9, Liver DNA (NHP) ([1]; NHP liver, DNA): 0.045 fold; Fold Enrichment relative to AAV9, Liver RNA (NHP) ([1]; NHP liver, RNA): 0.163 fold; Fold Enrichment relative to AAV9, Muscle (NHP) ([1]; NHP muscle): 0.000 fold |
| KTFNGSGSPHNKAQNHQT | 67.757 fold | – | – | 0.000 fold | – | – | – | – | – | 64.060 fold | 0.000 fold | 0.317 fold | 0.094 fold | 0.035 fold | – |
| KTFNGSGSPHSKAPNLQT | 168.920 fold | 168.920 fold | 121.436 fold | 0.000 fold | 0.000 fold | 0.167 fold | 0.015 fold | 0.000 fold | 0.000 fold | 121.436 fold | 0.167 fold | 0.015 fold | 0.000 fold | 0.000 fold | – |
| KTFNGSGSPHSKAQGQQT | 81.459 fold | 81.459 fold | 99.253 fold | 0.000 fold | 0.000 fold | 0.208 fold | 0.099 fold | 0.128 fold | 0.000 fold | 99.253 fold | 0.208 fold | 0.099 fold | 0.128 fold | 0.000 fold | – |
